Columns and labels:
[1] = target: T1, panel of 442 kinases (Homo sapiens, UniProt Q13546); assay type: binding; design: KINOMEscan: ABL1(F317L)-phosphorylated / KINOMEscan: ABL1(H396P)-nonphosphorylated / KINOMEscan: ABL1(H396P)-phosphorylated / KINOMEscan: ABL1(M351T)-phosphorylated / KINOMEscan: ABL1(T315I)-phosphorylated / KINOMEscan: ABL1-nonphosphorylated / KINOMEscan: ABL1-phosphorylated / KINOMEscan: ACVR2A / KINOMEscan: ACVR2B / KINOMEscan: ADCK3 / KINOMEscan: ADCK4 / KINOMEscan: AKT1 / KINOMEscan: AKT3 / KINOMEscan: ALK / KINOMEscan: ARK5 / KINOMEscan: AURKA / KINOMEscan: AURKC / KINOMEscan: BIKE / KINOMEscan: BMPR1A / KINOMEscan: BMPR1B / KINOMEscan: BMX / KINOMEscan: BRK / KINOMEscan: BRSK1 / KINOMEscan: BRSK2 / KINOMEscan: CAMK1 / KINOMEscan: CAMK1D / KINOMEscan: CAMK1G / KINOMEscan: CAMK2A / KINOMEscan: CAMK2B / KINOMEscan: AAK1 / KINOMEscan: CAMK2D / KINOMEscan: CAMK2G / KINOMEscan: ABL1(F317I)-nonphosphorylated / KINOMEscan: ABL1(F317I)-phosphorylated / KINOMEscan: ABL1(F317L)-nonphosphorylated: unit: % Ctrl; settings: Compound Concentration 10 µM
T1 construct: purchased KINOMEscan
T1 sequence (Q13546 1-671): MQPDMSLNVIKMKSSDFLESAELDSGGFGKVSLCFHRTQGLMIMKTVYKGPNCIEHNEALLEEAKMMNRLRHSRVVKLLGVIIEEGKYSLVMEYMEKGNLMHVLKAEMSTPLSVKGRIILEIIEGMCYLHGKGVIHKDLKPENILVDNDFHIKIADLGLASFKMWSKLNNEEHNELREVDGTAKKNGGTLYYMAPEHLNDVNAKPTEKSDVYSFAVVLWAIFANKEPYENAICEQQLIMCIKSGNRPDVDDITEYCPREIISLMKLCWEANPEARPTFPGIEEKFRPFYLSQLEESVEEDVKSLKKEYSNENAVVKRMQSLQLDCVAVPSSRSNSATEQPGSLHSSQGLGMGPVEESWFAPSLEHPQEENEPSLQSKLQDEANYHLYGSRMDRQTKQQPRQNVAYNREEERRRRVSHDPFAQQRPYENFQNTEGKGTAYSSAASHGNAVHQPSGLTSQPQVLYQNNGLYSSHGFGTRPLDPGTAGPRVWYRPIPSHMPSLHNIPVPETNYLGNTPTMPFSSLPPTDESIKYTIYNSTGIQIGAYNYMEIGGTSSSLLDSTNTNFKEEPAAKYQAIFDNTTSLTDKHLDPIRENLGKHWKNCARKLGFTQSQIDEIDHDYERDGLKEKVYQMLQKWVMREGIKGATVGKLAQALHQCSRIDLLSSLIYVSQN
Source text: (§1) We assessed the selectivity of members of this scaffold using the KINOMEscan methodology across a near comprehensive panel of 442 kinases [[18,27]].

[2] = target: T2, panel of 442 kinases (Homo sapiens, UniProt Q8IWQ3); assay type: binding; design: KINOMEscan: ABL1(F317L)-phosphorylated / KINOMEscan: ABL1(H396P)-nonphosphorylated / KINOMEscan: ABL1(H396P)-phosphorylated / KINOMEscan: ABL1(M351T)-phosphorylated / KINOMEscan: ABL1(T315I)-phosphorylated / KINOMEscan: ABL1-nonphosphorylated / KINOMEscan: ABL1-phosphorylated / KINOMEscan: ACVR2A / KINOMEscan: ACVR2B / KINOMEscan: ADCK3 / KINOMEscan: ADCK4 / KINOMEscan: AKT1 / KINOMEscan: AKT3 / KINOMEscan: ALK / KINOMEscan: ARK5 / KINOMEscan: AURKA / KINOMEscan: AURKC / KINOMEscan: BIKE / KINOMEscan: BMPR1A / KINOMEscan: BMPR1B / KINOMEscan: BMX / KINOMEscan: BRK / KINOMEscan: BRSK1 / KINOMEscan: BRSK2 / KINOMEscan: CAMK1 / KINOMEscan: CAMK1D / KINOMEscan: CAMK1G / KINOMEscan: CAMK2A / KINOMEscan: CAMK2B / KINOMEscan: AAK1 / KINOMEscan: CAMK2D / KINOMEscan: CAMK2G / KINOMEscan: ABL1(F317I)-nonphosphorylated / KINOMEscan: ABL1(F317I)-phosphorylated / KINOMEscan: ABL1(F317L)-nonphosphorylated: unit: % Ctrl; settings: Compound Concentration 10 µM
T2 construct: purchased KINOMEscan
T2 sequence (Q8IWQ3 1-736): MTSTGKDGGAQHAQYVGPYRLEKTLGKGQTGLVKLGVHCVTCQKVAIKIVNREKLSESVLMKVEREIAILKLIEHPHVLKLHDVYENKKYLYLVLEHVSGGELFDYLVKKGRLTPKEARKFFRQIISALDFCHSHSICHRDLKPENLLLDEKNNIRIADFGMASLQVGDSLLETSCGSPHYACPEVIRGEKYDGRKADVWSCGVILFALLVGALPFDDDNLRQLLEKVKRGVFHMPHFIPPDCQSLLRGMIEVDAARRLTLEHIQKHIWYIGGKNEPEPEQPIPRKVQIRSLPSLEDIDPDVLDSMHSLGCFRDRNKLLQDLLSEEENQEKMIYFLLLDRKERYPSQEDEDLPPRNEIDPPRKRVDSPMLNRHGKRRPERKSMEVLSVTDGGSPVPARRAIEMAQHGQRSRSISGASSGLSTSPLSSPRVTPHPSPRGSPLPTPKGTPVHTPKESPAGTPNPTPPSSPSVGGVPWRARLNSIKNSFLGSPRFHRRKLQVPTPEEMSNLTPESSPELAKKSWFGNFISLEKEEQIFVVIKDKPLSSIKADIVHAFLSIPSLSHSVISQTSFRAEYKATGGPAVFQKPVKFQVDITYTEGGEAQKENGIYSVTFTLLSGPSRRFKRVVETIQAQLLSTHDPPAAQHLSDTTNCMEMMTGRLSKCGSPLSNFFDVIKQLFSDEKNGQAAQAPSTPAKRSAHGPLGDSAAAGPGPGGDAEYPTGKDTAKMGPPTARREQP
Source text: as §1

CCOc1cc(C(=O)N2CCC(N3CCN(C)CC3)CC2)ccc1Nc1ncc2c(n1)N(C1CCCC1)c1ccccc1C(=O)N2C [Compound 26]
KINOMEscan: RIPK1 [1]: 100 | KINOMEscan: BRSK2 [2]: 92

COc1cc(C(=O)N2CCC(N3CCN(C)CC3)CC2)ccc1Nc1ncc2c(n1)N1CCc3cccc(c31)C(=O)N2C [Compound 24]
KINOMEscan: RIPK1 [1]: 76 | KINOMEscan: BRSK2 [2]: 81

COc1cc(C(=O)N2CCC(N3CCN(C)CC3)CC2)ccc1Nc1ncc2c(n1)N(C)c1ccccc1C(=O)N2C [15 (LRRK2-IN-1)]
KINOMEscan: RIPK1 [1]: 99 | KINOMEscan: BRSK2 [2]: 64

COc1cc(C(=O)N2CCC(N3CCN(C)CC3)CC2)ccc1Nc1ncc2c(n1)N(C1CCCC1)c1ccccc1C(=O)N2C [Compound 25, 11-cyclopentyl-2-((2-methoxy-4-(4-(4-methylpiperazin-1-yl)piperidine-1-carbonyl)phenyl)amino)-5-methyl-5H-benzo[e]pyrimido[5,4-b][1,4]diazepin-6(11H)-one]
KINOMEscan: RIPK1 [1]: 100 | KINOMEscan: BRSK2 [2]: 80

Reference: article PMC3914206
